Data taken from patent publication US20240002365A1, “PYRIDAZINE AND 1,2,4-TRIAZINE DERIVATIVES AS FGFR KINASE INHIBITORS” (BETA PHARMA, INC., priority 2020, published 2024).
Values joined by “and” are separate entries in the source; they are usually repeats but may differ in a detail not shown here. Equal entries are not always repeated. Where two headings read alike, the source gives them in different places.

Test: Pharmacokinetics assay in male CD-1 mice (plasma, LC-MS/MS, non-compartmental analysis)
Type: in vivo
Conditions: for MRT inf: read-out: MRT0-inf; for MRT last: read-out: MRT0-last
Description: Pharmacokinetics Assay. A pharmacokinetics assay of Example 1 was performed by WuXi AppTec Inc., 6 Cedarbrook Drive, Cranbury, NJ 08512 USA. This study was conducted in 6 to 8-week-old male CD-1 mice (Hilltop Laboratories). Animals were group housed during acclimation and throughout the study. The animal room environment was controlled according to facility operation (temperature: 20 to 26° C.; relative humidity: 30 to 70%; lighting: 12 hour light/dark cycle). Temperature, relative humidity, and lighting were monitored by PointView Environmental Monitoring System. Animals were fed certified pellet diet (Certified Rodent Diet #5002, LabDiet). The diet lot number and specifications were recorded in study notebook and archived at WuXi AppTec. Water (reverse osmosis) was provided to the animals ad libitum. The animals were fasted overnight and food was returned 4 hours post-dose.
An appropriate amount of Example compound 1 above (N^1-(3,5-Dimethoxyphenyl)-N^2-isopropyl-N^1-(3-(1-methyl-1H-pyrazol-4-yl)cinnolin-6-yl)ethane-1,2-diamine) was accurately weighed and mixed with an appropriate volume of 20% hydroxypropyl-(3-cyclodextrin; 80% H2O (w/v) to give either a clear solution or uniform suspension (PO only). Blood samples of about 30-40 μL were collected from peripheral veins at pre-defined time points. into pre-chilled micro-tubes containing K2EDTA as anti-coagulant and kept on ice until centrifugation. The blood samples were centrifuged at 4° C., 3000g for 15 min within half an hour of collection. Plasma was collected into 96-well plate(s), quickly frozen on dry ice and stored at −70±10° C. until LC-MS/MS analysis. The LC-MS/MS analytical method is described as follows:
The pharmacokinetics of Example Compound 1 were analyzed using the Phoenix WinNonlin software (version 6.3) based on the non-compartmental analysis model and the results are shown below in FIGS. 1 and 2 and in Tables 1 and 2. M7, M8, M9, etc. refer to particular mouse subjects used in the study.

[1] = IV 1.00 mg/kg, mouse, individual mice M7-M9
[2] = PO 10.0 mg/kg, mouse, individual mice M10-M12
[3] = male, CD-1, mouse, plasma, iv, 1 mg/kg, IV 1.00 mg/kg, individual mice M7-M9
[4] = male, CD-1, mouse, plasma, iv, 1 mg/kg, IV 1.00 mg/kg, mean
[5] = male, CD-1, mouse, plasma, po, 10 mg/kg, PO 10.0 mg/kg, mean

COc1cc(OC)cc(N(CCNC(C)C)c2ccc3nnc(-c4cnn(C)c4)cc3c2)c1 [Example 1, N^1-(3,5-Dimethoxyphenyl)-N^2-isopropyl-N^1-(3-(1-methyl-1H-pyrazol-4-yl)cinnolin-6-yl)ethane-1,2-diamine]
Plasma concentration (IV 1.00 mg/kg, mouse, 299 s, individual mice M7-M9): 294 ng/mL and 444 ng/mL
Plasma concentration (IV 1.00 mg/kg, mouse, 0.250 h, individual mice M7-M9): 197 ng/mL and 143 ng/mL and 292 ng/mL
Plasma concentration (IV 1.00 mg/kg, mouse, 0.500 h, individual mice M7-M9): 80.8 ng/mL and 86.8 ng/mL and 206 ng/mL
Plasma concentration (IV 1.00 mg/kg, mouse, 1.00 h, individual mice M7-M9): 58.0 ng/mL and 29.3 ng/mL and 86.4 ng/mL
Plasma concentration (IV 1.00 mg/kg, mouse, 2.00 h, individual mice M7-M9): 15.2 ng/mL and 8.83 ng/mL and 17.9 ng/mL
Plasma concentration (IV 1.00 mg/kg, mouse, 4.00 h, individual mice M7-M9): 3.17 ng/mL and 3.64 ng/mL
Plasma concentration (IV 1.00 mg/kg, mouse, 8.00 h, individual mice M7-M9): 1.73 ng/mL and 1.42 ng/mL
Plasma concentration (IV 1.00 mg/kg, mouse, 24.0 h, individual mice M7-M9): 2.21 ng/mL and BQL
AUC0-inf [1]: 197 ng·h/mL and 305 ng·h/mL
AUC0-last [1]: 188 ng·h/mL and 303 ng·h/mL
AUCExtra [1]: 1.15% and 4.42% and 0.637%
AUMCExtra [1]: 10.6% and 26.9% and 6.89%
C0 [1]: 421 ng/mL and 547 ng/mL
Cl [1]: 84.8 mL/min/kg and 54.7 mL/min/kg
MRT0-inf [1]: 2.80 h and 4.58 h and 0.866 h
MRT0-last [1]: 2.53 h and 3.50 h and 0.812 h
T1/2 [1]: 1.34 h and 2.72 h and 0.948 h
Tlast [1]: 24.0 h (2×) and 8.00 h
Vdss [1]: 12.2 L/kg and 23.3 L/kg and 2.84 L/kg
AUCExtra (IV 1.00 mg/kg, mouse, mean): 2.07%
AUMCExtra (IV 1.00 mg/kg, mouse, mean): 14.8%
Tlast (IV 1.00 mg/kg, mouse, mean): 18.7 h
Plasma concentration (PO 10.0 mg/kg, mouse, 0.167 h, individual mice M10-M12): 43.6 ng/mL and 46.8 ng/mL and 147 ng/mL
Plasma concentration (PO 10.0 mg/kg, mouse, 0.500 h, individual mice M10-M12): 71.0 ng/mL and 102 ng/mL and 269 ng/mL
Plasma concentration (PO 10.0 mg/kg, mouse, 1.00 h, individual mice M10-M12): 47.6 ng/mL and 51.9 ng/mL and 170 ng/mL
Plasma concentration (PO 10.0 mg/kg, mouse, 2.00 h, individual mice M10-M12): 14.1 ng/mL and 29.7 ng/mL and 89.5 ng/mL
Plasma concentration (PO 10.0 mg/kg, mouse, 4.00 h, individual mice M10-M12): 12.5 ng/mL and 9.57 ng/mL and 22.8 ng/mL
Plasma concentration (PO 10.0 mg/kg, mouse, 6.00 h, individual mice M10-M12): 20.7 ng/mL and 7.02 ng/mL and 4.44 ng/mL
Plasma concentration (PO 10.0 mg/kg, mouse, 8.00 h, individual mice M10-M12): 13.2 ng/mL and 4.84 ng/mL and 1.77 ng/mL
Plasma concentration (PO 10.0 mg/kg, mouse, 24.0 h, individual mice M10-M12): 7.49 ng/mL and 1.56 ng/mL and BQL
AUC0-inf [2]: 488 ng·h/mL and 235 ng·h/mL and 443 ng·h/mL
AUC0-last [2]: 333 ng·h/mL and 216 ng·h/mL and 441 ng·h/mL
AUCExtra [2]: 31.7% and 8.42% and 0.593%
AUMCExtra [2]: 69.7% and 41.4% and 3.41%
Cmax [2]: 71.0 ng/mL and 102 ng/mL and 269 ng/mL
MRT0-inf [2]: 20.3 h and 7.47 h and 1.65 h
MRT0-last [2]: 9.01 h and 4.78 h and 1.60 h
T1/2 [2]: 14.3 h and 8.81 h and 1.03 h
Tlast [2]: 24.0 h (2×) and 8.00 h
AUCExtra (PO 10.0 mg/kg, mouse, mean): 13.6%
AUMCExtra (PO 10.0 mg/kg, mouse, mean): 38.2%
Tlast (PO 10.0 mg/kg, mouse, mean): 18.7 h
concentration at 0.083 h (male, CD-1, mouse, plasma, iv, 1 mg/kg, IV 1.00 mg/kg, 299 s, individual mice M7-M9): 341 ng/mL
concentration at 0.083 h (male, CD-1, mouse, plasma, iv, 1 mg/kg, IV 1.00 mg/kg, 299 s, mean): 360 ng/mL
concentration at 0.25 h (male, CD-1, mouse, plasma, iv, 1 mg/kg, IV 1.00 mg/kg, 0.250 h, mean): 211 ng/mL
concentration at 0.5 h (male, CD-1, mouse, plasma, iv, 1 mg/kg, IV 1.00 mg/kg, 0.500 h, mean): 125 ng/mL
concentration at 1 h (male, CD-1, mouse, plasma, iv, 1 mg/kg, IV 1.00 mg/kg, 1.00 h, mean): 57.9 ng/mL
concentration at 2 h (male, CD-1, mouse, plasma, iv, 1 mg/kg, IV 1.00 mg/kg, 2.00 h, mean): 14 ng/mL
concentration at 4 h (male, CD-1, mouse, plasma, iv, 1 mg/kg, IV 1.00 mg/kg, 4.00 h, individual mice M7-M9): 3.72 ng/mL
concentration at 4 h (male, CD-1, mouse, plasma, iv, 1 mg/kg, IV 1.00 mg/kg, 4.00 h, mean): 3.51 ng/mL
concentration at 8 h (male, CD-1, mouse, plasma, iv, 1 mg/kg, IV 1.00 mg/kg, 8.00 h, individual mice M7-M9): 1.65 ng/mL
concentration at 8 h (male, CD-1, mouse, plasma, iv, 1 mg/kg, IV 1.00 mg/kg, 8.00 h, mean): 1.6 ng/mL
concentration at 24 h (male, CD-1, mouse, plasma, iv, 1 mg/kg, IV 1.00 mg/kg, 24.0 h, individual mice M7-M9): 1.36 ng/mL
concentration at 24 h (male, CD-1, mouse, plasma, iv, 1 mg/kg, IV 1.00 mg/kg, 24.0 h, mean): 1.79 ng/mL
AUC(0-t) [3]: 226 ng·h/mL
clearance [3]: 73 mL/min/kg
AUC0-inf (male, CD-1, mouse, plasma, iv, 1 mg/kg, IV 1.00 mg/kg, individual mice M7-M9, read-out: AUC0-inf): 228 ng·h/mL
C0 (male, CD-1, mouse, plasma, iv, 1 mg/kg, IV 1.00 mg/kg, individual mice M7-M9, read-out: C0): 448 ng/mL
AUC(0-t) [4]: 239 ng·h/mL
clearance [4]: 70.8 mL/min/kg
half-life [4]: 1.67 h
AUC0-inf (male, CD-1, mouse, plasma, iv, 1 mg/kg, IV 1.00 mg/kg, mean, read-out: AUC0-inf): 243 ng·h/mL
C0 (male, CD-1, mouse, plasma, iv, 1 mg/kg, IV 1.00 mg/kg, mean, read-out: C0): 472 ng/mL
MRT inf [4]: 2.75 h
MRT last [4]: 2.28 h
Vd (male, CD-1, mouse, plasma, iv, 1 mg/kg, IV 1.00 mg/kg, mean, read-out: Vdss): 12.8 L/kg
concentration at 0.167 h (male, CD-1, mouse, plasma, po, 10 mg/kg, PO 10.0 mg/kg, 0.167 h, mean): 79.1 ng/mL
concentration at 0.5 h (male, CD-1, mouse, plasma, po, 10 mg/kg, PO 10.0 mg/kg, 0.500 h, mean): 147 ng/mL
concentration at 1 h (male, CD-1, mouse, plasma, po, 10 mg/kg, PO 10.0 mg/kg, 1.00 h, mean): 89.8 ng/mL
concentration at 2 h (male, CD-1, mouse, plasma, po, 10 mg/kg, PO 10.0 mg/kg, 2.00 h, mean): 44.4 ng/mL
concentration at 4 h (male, CD-1, mouse, plasma, po, 10 mg/kg, PO 10.0 mg/kg, 4.00 h, mean): 15 ng/mL
concentration at 6 h (male, CD-1, mouse, plasma, po, 10 mg/kg, PO 10.0 mg/kg, 6.00 h, mean): 10.7 ng/mL
concentration at 8 h (male, CD-1, mouse, plasma, po, 10 mg/kg, PO 10.0 mg/kg, 8.00 h, mean): 6.6 ng/mL
concentration at 24 h (male, CD-1, mouse, plasma, po, 10 mg/kg, PO 10.0 mg/kg, 24.0 h, mean): 4.53 ng/mL
AUC(0-t) [5]: 330 ng·h/mL
half-life [5]: 8.05 h
AUC0-inf (male, CD-1, mouse, plasma, po, 10 mg/kg, PO 10.0 mg/kg, mean, read-out: AUC0-inf): 389 ng·h/mL
Cmax (male, CD-1, mouse, plasma, po, 10 mg/kg, PO 10.0 mg/kg, mean, read-out: Cmax): 147 ng/mL
MRT inf [5]: 9.81 h
MRT last [5]: 5.13 h
bioavailability (male, CD-1, plasma, PO 10.0 mg/kg vs IV 1.00 mg/kg, mouse, calculated from AUC): 13.8%
Tmax (male, CD-1, plasma, PO 10.0 mg/kg, mouse, individual mice M10-M12): 0.5 h
